Non-standard residues stand in square brackets, D forms with d. Residues, ends and D or L forms follow the SMILES beside them. dAla(N-(6-guanidinohexyl)) = C[C@@H](NCCCCCCNC(=N)N)C(=O)O; dTyr(3-I) = N[C@H](Cc1ccc(O)c(I)c1)C(=O)O; 2Nal = N[C@@H](Cc1ccc2ccccc2c1)C(=O)O
Legend:
hCXCR4 = molecular target: T1, hCXCR4 (Homo sapiens, UniProt P61073); assay: Competitive binding assay (IC50) on Jurkat cells with [^125I]CPCR4.3 as radioligand; settings: for IC50: Jurkat human T cell leukemia cells, 200,000 cells/sample, radioligand [^125I]CPCR4.3
T1 construct: endogenous hCXCR4 (Jurkat); endogenous in cells
Method: To allow data normalization, [^natGa] […] Experiments were performed in triplicate with n = 3 per concentration in each experiment. IC50 values were calculated using GraphPad Prism 6.01 (Graph Pad Software, San Diego, USA).

mCXCR4 = molecular target: T2, mCXCR4 (Mus musculus, UniProt P70658); assay: Competitive binding assay (IC50) on Eμ-Myc 1080 mouse lymphoma cells with [^125I]CPCR4.3 as radioligand; settings: Eμ-Myc1080 mouse B cell lymphoma cells, 200,000 cells/sample, radioligand [^125I]CPCR4.3
T2 construct: endogenous in cells; host or cells: Eμ-myc 1080 mouse B cell lymphoma cells
Method: To allow data normalization, [^natGa] Pentixafor and FC-131 were included as references in this study. Experiments were performed in triplicate with n = 3 per concentration in each experiment. IC50 values were calculated using GraphPad Prism 6.01 (Graph Pad Software, San Diego, USA).

T1 sequence (P61073 whole entry): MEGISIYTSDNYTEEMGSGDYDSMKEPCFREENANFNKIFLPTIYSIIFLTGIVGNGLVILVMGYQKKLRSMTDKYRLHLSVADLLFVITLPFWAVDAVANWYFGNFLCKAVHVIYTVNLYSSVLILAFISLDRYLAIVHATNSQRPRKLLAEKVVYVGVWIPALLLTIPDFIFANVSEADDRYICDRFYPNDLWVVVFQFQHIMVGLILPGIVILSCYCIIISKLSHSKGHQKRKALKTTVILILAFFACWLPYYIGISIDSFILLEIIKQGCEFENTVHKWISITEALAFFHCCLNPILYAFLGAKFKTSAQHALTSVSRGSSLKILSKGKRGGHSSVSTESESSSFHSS
T2 sequence (P70658 whole entry): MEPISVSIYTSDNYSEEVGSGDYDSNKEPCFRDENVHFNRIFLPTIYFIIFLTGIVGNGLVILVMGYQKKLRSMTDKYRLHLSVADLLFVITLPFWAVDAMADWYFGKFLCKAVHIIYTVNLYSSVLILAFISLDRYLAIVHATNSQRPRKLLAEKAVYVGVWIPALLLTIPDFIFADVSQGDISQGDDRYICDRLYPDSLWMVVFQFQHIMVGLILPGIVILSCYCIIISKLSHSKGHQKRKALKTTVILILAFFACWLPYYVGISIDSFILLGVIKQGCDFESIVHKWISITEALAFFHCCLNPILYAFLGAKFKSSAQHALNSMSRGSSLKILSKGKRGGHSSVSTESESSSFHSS

IC50 (hCXCR4) [nM]	IC50 (mCXCR4) [nM]	hCXCR4 affinity higher than [^natGa]Pentixafor (hCXCR4; assay conditions of this study)	Compound
2.8 ± 1.1	0.8 ± 0.1		C[C@@H]1C(=O)N[C@@H](CCCNC(=N)N)C(=O)N[C@@H](Cc2ccc3ccccc3c2)C(=O)NCC(=O)N[C@H](Cc2ccc(O)cc2)C(=O)N1CCCCCCNC(=N)N [CPCR4.3, cyclo(-D-Tyr^1-D-[N-hexyl-6-guanidino]Ala^2-Arg^3-Nal^4-Gly^5-)] (cyclo([dY][dAla(N-(6-guanidinohexyl))]R[2Nal]G))
	119 ± 69	more than 3 fold	N=C(N)NCCC[C@@H]1NC(=O)[C@H](CCCNC(=N)N)NC(=O)[C@@H](Cc2ccc(O)cc2)NC(=O)CNC(=O)[C@H](Cc2ccc3ccccc3c2)NC1=O [FC-131]
5.4 ± 1.5	4.9 ± 1.7		C[C@@H]1C(=O)N[C@@H](CCCNC(=N)N)C(=O)N[C@@H](Cc2ccc3ccccc3c2)C(=O)NCC(=O)N[C@H](Cc2ccc(O)c(I)c2)C(=O)N1CCCCCCNC(=N)N [iodo-CPCR4.3] (cyclo([dTyr(3-I)][dAla(N-(6-guanidinohexyl))]R[2Nal]G))
	> 1000		Ga-Pentixafor: natGa complex of the cyclic pentapeptide Pentixafor, hCXCR4 selective reference ligand
42.4 ± 11.6			Ga-Pentixafor: natGa complex of the cyclic pentapeptide Pentixafor, hCXCR4 selective reference ligand (YXRXG; Head-to-tail cyclic pentapeptide; The parent CPCR4.3 is printed as cyclo(-D-Tyr1-D-[N-hexyl-6-guanidino]Ala2-Arg3-Nal4-Gly5-); the text states that Pentixafor has D-Orn at position 2 instead of the N-)

Reference: publication PMC6692420, “Validation of [^125I]CPCR4.3 as an investigative tool for the sensitive and specific detection of hCXCR4 and mCXCR4 expression in vitro and in vivo” (EJNMMI Research, 2019)
